Type in all cases: cell-based
Data set [1] concerns p53 null U87 cells. Put plainly: Western blot of PARP1, p-ERK, γ-H2AX in p53 null U87 cells. How it is done: (§1) For Western blot analysis, cells were lysed with lysis buffer (20 mM sodium phosphate (pH 7.0), 250 mM NaCl, 30 mM sodium pyrophosphate, 0.1% Nonidet™ P-40, 5 mM EDTA, 10 mM NaF, 0.1 mM Na3VO4, and 1 mM PMSF) supplemented with complete protease inhibitors (Roche™) and homogenized by passage through a 28 gauge needle. Protein concentration was measured with a Bio-Rad™ protein assay dye reagent and results were read using a spectrophotometer (BiophotometerPlus™ by Eppendorf™). Protein extracts were resolved by SDS PAGE on gradient (Thermo Fisher™) or 12% gels. Proteins were then electrotransferred at 350 mA for 80 minutes onto a PVDF membrane (Immobilon-P PVDF). Membranes were blocked with PBST with 5% milk and 1% BSA for 30 minutes. Quantitation of blots was performed Image Studio Lite software (LI-COR Biosciences™).
In addition, C9 was knocked down with two independent siRNAs in p53 null U87 cells to investigate the role of p53 in the viability of the cells.
See FIG. 37, a WB of p53 null U87 cells (KO #4) treated with control and C9 siRNA and showing levels of PARP1, p-ERK, γ-H2AX. Actin was used as a loading control.
A general note: Immunoblotting shows a protein as a band on a membrane.

The test system of another data set is U87 cells. Put plainly: Vacuole quantitation in phase contrast images after C9 KD. The settings on record: 3 days, vs siCtrl. On the procedure:
For siRNA knockdown experiments, siRNAs targeting C9 mRNA were designed with the Whitehead website (sirna.wi.mit.edu) and with RNAxs webserver (rna.tbi.univie.ac.at/cgi-bin/RNAxs). All siRNAs were obtained from GenePharma™. Lipofectamine RNAiMAX (Thermo Scientific™) was used as the transfection reagent for all siRNA experiments (according to the manufacturer's instructions). siRNA concentration was 40 nM per 60 mm plate. After 6 hours, media was changed and cells were treated again with siRNA after 48 hours. For RNA and protein analysis, cells were harvested after 48 hours following the second treatment. All KD experiments were performed in three biological replicates. The siRNA sequences were as follows: […] (SEQ ID NO:631; sense) and […] (SEQ ID NO:632; antisense); and GCACAUAUGGACUAUCAAUtt (SEQ ID NO:633; sense) and AUUGAUAGUCCAUAUGUGCtg (SEQ ID NO:634; antisense). The lower case letters in the sequence indicate location where optional modifications can be placed to enhance stability of the RNA.
The vacuoles were examined in order to reveal the mechanism by which C9 protein levels contribute to vacuole initiation. […] The number of vacuoles per cell were counted using imageJ™ from 3 biological replicates and a total of about 50 cells were quantitated, each dot representing a measurement of vacuoles per one cell FIG. 2A). […] Statistical significance was assessed by two tailed t-test. […]

Another data set concerns cortical neurons. Put plainly: C9 knockdown in neurons and live imaging of mitochondria. Particulars: rat-derived cortical neurons. On the procedure:
Cortices from E19 embryonic brains from pregnant Sprague-Dawley female rats were dissected in ice-cold HBSS (ThermoFisher™ Scientific #24020117), supplemented with 10 mM HEPES (pH 7.4), 10 mM MgCl2, 1% P/S and 0.5 mM L-glutamine. The hippocampal tissue was discarded and only the cortical tissue was trypsinized for 15 minutes at 37° C. in a water bath and resuspended in DMEM with 10% FBS and 1% P/S. The dissociated neurons were subjected to centrifugation to remove debris, counted and plated onto MatTek™ 35 mm or 50 mm glass bottom dishes pre-coated with Poly-L-Lysine (1 mg/mL) and Laminin, at a density of 100,000 for live imaging experiments. After about 12-15 hours, the medium was changed to Neurobasal medium supplemented with 0.5 mM L-Glutamine, B-27 serum free supplement (Gibco™) and 1% P/S. Media were changed every 2-3 days.
Day 7 cortical neurons were transfected with 80 nM C9orf72 siRNA and 40 ng CMV-GFP vector using a magnetofectamine kit (OZ Biosciences™ #MTX0750). […]

Data set [2] has as its system RAS/RAC1 signaling pathway. In words: Western blot of RAS, RAC1 and phospho-ERK. Particulars: U87 cells. On the procedure: as §1
Macropinocytosis is reported to be dependent on RAS and/or RAC1 activation, therefore whether the RAS/RAC1 signaling pathway is activated upon C9 KD was explored. First, RAS and RAC1 protein levels were measured in U87 cells upon C9 KD. […] If the RAS/RAC1 pathway is active, then ERK1/2 phosphorylation should be observed. FIG. 14 is a WB of U87 cells treated with control (siCtrl) and C9 siRNA (siC9; SEQ ID NO:631) measuring protein levels of RAS and phospho-ERK and loading control actin (left) and a WB showing RAC1 levels under the same conditions with actin as loading control (right). […] Therefore both macropinocytosis and RAS/RAC1 signaling pathways are a possible therapeutic targets in C9 ALS.

Data set [3] concerns p53 null U87 cells. Put plainly: Mitochondrial imaging in p53 null U87 clones. Particulars: p53 KO U87 clones KO #4 and KO #9. An excerpt:
C9 then was knocked down in two p53 KO U87 cells lines which were imaged to show whether mitochondrial disorganization depends on p53. […] FIG. 38 is a set of confocal microscopy images of two p53 null U87 clones (KO #4 and KO #9) treated with control and C9 siRNA, stained with Mitotracker red.

Turning to “siC9: siRNA targeting C9 mRNA: UUAAUGAAACAAUAAUCACUC (SEQ ID NO:631; sense) and GUGAUUAUUGUUUCAUUAAUC (SEQ ID NO:632; antisense) (listed as RNA, chemistry not given here)”, the PARP1 protein entry with p53 null U87 cells [1] (p53 KO U87 cells) is reported as “PARP downregulation occurred without the presence of p53”. Besides, in the data set on p53 null U87 cells [1] (p53 null U87 cells (KO #4)), the “ERK and γ-H2AX phosphorylation” value is “increased ERK and γ-H2AX phosphorylation”. Moreover, in the data set on U87 cells, the size of vacuoles result is recorded as “significant increase” and the “total vacuoles per cell” value is listed as “significant increase”. Moreover, in the data set with cortical neurons, the mitochondria motility entry is recorded as “significantly reduced”. Also, the mitochondria accumulation entry with cortical neurons (dendrites) is “induced mitochondria accumulation in the dendrites”. Besides, in data set [2], the RAC1 protein levels result is “elevated”, the RAS protein levels entry is on record as “elevated” and the “phosphorylation of ERK1/2” value is “increased phosphorylation”. In addition, the mitochondrial organization entry in the data set on p53 null U87 cells [3] was “caused mitochondrial disorganization”.

Source of the values: patent US20210108199A1, “Treatment for aggressive cancers by targeting C9ORF72” (The Trustees of Columbia University in the City of New York, priority 2017, published 2021).
